ChEMBL document CHEMBL1201862, “PubChem BioAssay data set” (2004)
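In this assay, cells in 96-well plates receive the compound at five concentrations for 48 hours. Endpoints are linearly interpolated between the surrounding concentrations. At the GI50, growth is halved.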 Active and inactive are the calls of the source. Rule as the data show it: active = GI50 up to about 1.1 µM and inactive = higher.

Tests used:
Test in all cases: DTP human tumour cell line panel, 48 h
A549 = tested on: A549
EKVX = tested on: EKVX
HT-29 = tested on: HT-29
KM12 = tested on: KM12
MCF7 = tested on: MCF7
MDA-MB-435 = tested on: MDA-MB-435
MDA-N = tested on: MDA-N
MOLT-4 = tested on: MOLT-4
NCI-H23 = tested on: NCI-H23
NCI-H522 = tested on: NCI-H522
OVCAR-3 = tested on: OVCAR-3
OVCAR-5 = tested on: OVCAR-5
RXF 393 = tested on: RXF 393
SK-OV-3 = tested on: SK-OV-3
SNB-19 = tested on: SNB-19
SR = tested on: SR
T47D = tested on: T47D
TK-10 = tested on: TK-10
U-251 = tested on: U-251
BT-549 = tested on: BT-549

Compound | GI50 (A549) | GI50 (EKVX) | GI50 (HT-29) | GI50 (KM12) | GI50 (MCF7) | GI50 (MDA-MB-435) | GI50 (MDA-N) | GI50 (MOLT-4) | GI50 (NCI-H23) | GI50 (NCI-H522) | GI50 (OVCAR-3) | GI50 (OVCAR-5) | GI50 (RXF 393) | GI50 (SK-OV-3) | GI50 (SNB-19) | GI50 (SR) | GI50 (T47D) | GI50 (TK-10) | GI50 (U-251) | GI50 (BT-549)
CN1CCN(C2=NCCO2)CC1 | > 100 µM (inactive) | > 100 µM (inactive) | > 100 µM (inactive) | > 100 µM (inactive) | > 100 µM (inactive) | > 100 µM (inactive) | > 100 µM (inactive) | > 100 µM (inactive) | > 100 µM (inactive) | > 100 µM (inactive) | > 100 µM (inactive) | > 100 µM (inactive) | > 100 µM (inactive) | > 100 µM (inactive) | > 100 µM (inactive) | > 100 µM (inactive) | > 100 µM (inactive) | > 100 µM (inactive) | > 100 µM (inactive) | –
O=C(O)C1C2CCC(C2)C1c1ccccc1 (stereo not given) | > 100 µM (inactive) | > 100 µM (inactive) | > 100 µM (inactive) | > 100 µM (inactive) | > 100 µM (inactive) | > 100 µM (inactive) | > 100 µM (inactive) | > 100 µM (inactive) | > 100 µM (inactive) | > 100 µM (inactive) | > 100 µM (inactive) | > 100 µM (inactive) | > 100 µM (inactive) | > 100 µM (inactive) | > 100 µM (inactive) | > 100 µM (inactive) | > 100 µM (inactive) | > 100 µM (inactive) | > 100 µM (inactive) | –
CCc1cc(-c2nsc(=O)o2)c(S(=O)(=O)CC)s1 | > 100 µM (inactive) | > 100 µM (inactive) | 84.9 µM (inactive) | 38.4 µM (inactive) | 26.7 µM (inactive) | 55.3 µM (inactive) | 75 µM (inactive) | > 10 µM (inactive) | 45.4 µM (inactive) | 22.2 µM (inactive) | > 100 µM (inactive) | > 100 µM (inactive) | – | > 100 µM (inactive) | 77.8 µM (inactive) | 38.3 µM (inactive) | 76.7 µM (inactive) | > 100 µM (inactive) | > 100 µM (inactive) | –
COc1c(C(C)C)cc2c3c1OC(=O)[C@@]31CCCC(C)(C)C1CC2 (stereo not given in full) | 13.6 µM (inactive) | 14.6 µM (inactive) | 25.5 µM (inactive) | – | – | – | – | 25.1 µM (inactive) | 20 µM (inactive) | 9.18 µM (inactive) | 20.5 µM (inactive) | 52.4 µM (inactive) | 17.3 µM (inactive) | 23.8 µM (inactive) | 5.78 µM (inactive) | 16.9 µM (inactive) | – | 25.2 µM (inactive) | 20 µM (inactive) | –
CCCCCCC(=O)OC[n+]1ccc2c(C)c3[nH]c4ccc(OC)cc4c3c(C)c2c1 | 0.238 µM (active) | 0.8 µM (active) | 0.0664 µM (active) | 0.186 µM (active) | 0.214 µM (active) | 0.454 µM (active) | 0.324 µM (active) | 0.0378 µM (active) | 0.329 µM (active) | 0.303 µM (active) | 1.57 µM (inactive) | 1.05 µM (active) | 0.247 µM (active) | 0.585 µM (active) | 0.308 µM (active) | 0.0486 µM (active) | 0.883 µM (active) | 2.05 µM (inactive) | 0.282 µM (active) | –
Cc1ccc(S(=O)(=O)Nn2c(O)c(C#N)c(-c3ccc([N+](=O)[O-])cc3)c(C#N)c2=O)cc1 | > 100 µM (inactive) | > 100 µM (inactive) | > 100 µM (inactive) | > 100 µM (inactive) | > 100 µM (inactive) | > 100 µM (inactive) | > 100 µM (inactive) | > 100 µM (inactive) | – | > 100 µM (inactive) | – | > 100 µM (inactive) | > 100 µM (inactive) | > 100 µM (inactive) | > 100 µM (inactive) | – | – | > 100 µM (inactive) | > 100 µM (inactive) | > 100 µM (inactive)
COc1c(C(=O)/C(=N/Nc2ccccc2)C(C)=O)c(O)c(OC)c2occc12 | 52.6 µM (inactive) | 22.2 µM (inactive) | 37.3 µM (inactive) | 27.7 µM (inactive) | 25.4 µM (inactive) | 34 µM (inactive) | 32.1 µM (inactive) | 48.3 µM (inactive) | 33.3 µM (inactive) | 41.8 µM (inactive) | 67.9 µM (inactive) | > 100 µM (inactive) | 13.7 µM (inactive) | 65.2 µM (inactive) | 36.1 µM (inactive) | 35.8 µM (inactive) | 19.3 µM (inactive) | 77.1 µM (inactive) | 59.7 µM (inactive) | –
CCCCCCCCCCCCN(O)C(=O)c1ccccc1 | 24.4 µM (inactive) | 25.9 µM (inactive) | 39.4 µM (inactive) | 38 µM (inactive) | – | – | – | 6.44 µM (inactive) | 14.9 µM (inactive) | 25.6 µM (inactive) | > 100 µM (inactive) | 21.5 µM (inactive) | 35.2 µM (inactive) | 43.1 µM (inactive) | 42.6 µM (inactive) | 8.26 µM (inactive) | – | 46.5 µM (inactive) | 11.8 µM (inactive) | –
CC(O)CC(O)(C(F)(F)F)C(F)(F)F (stereo not given) | > 10 µM (inactive) | > 10 µM (inactive) | > 10 µM (inactive) | > 10 µM (inactive) | > 10 µM (inactive) | > 10 µM (inactive) | > 10 µM (inactive) | > 10 µM (inactive) | > 10 µM (inactive) | > 10 µM (inactive) | > 10 µM (inactive) | – | > 10 µM (inactive) | > 10 µM (inactive) | > 10 µM (inactive) | > 10 µM (inactive) | > 10 µM (inactive) | > 10 µM (inactive) | > 10 µM (inactive) | –
CC1=NN(c2ccccc2)C(=O)C1=C1SCCCS1 | 25.4 µM (inactive) | 30.1 µM (inactive) | 32 µM (inactive) | 21.9 µM (inactive) | – | – | – | 16 µM (inactive) | 29.2 µM (inactive) | 18.1 µM (inactive) | 22.3 µM (inactive) | 54 µM (inactive) | 28.5 µM (inactive) | 46.3 µM (inactive) | 22.5 µM (inactive) | 14.3 µM (inactive) | – | 23.8 µM (inactive) | 18.1 µM (inactive) | –
O=C(CNc1ccccc1[N+](=O)[O-])Nn1cnc2ccc(S(=O)(=O)Nc3ccccc3[N+](=O)[O-])cc2c1=O | > 100 µM (inactive) | > 100 µM (inactive) | > 100 µM (inactive) | > 100 µM (inactive) | > 100 µM (inactive) | > 100 µM (inactive) | > 100 µM (inactive) | > 100 µM (inactive) | > 100 µM (inactive) | > 100 µM (inactive) | > 100 µM (inactive) | > 100 µM (inactive) | – | > 100 µM (inactive) | > 100 µM (inactive) | > 100 µM (inactive) | – | > 100 µM (inactive) | > 100 µM (inactive) | > 100 µM (inactive)
CC(=O)OCC1OC(c2nc3ccccc3s2)=CC(OC(C)=O)C1OC(C)=O (stereo not given) | > 100 µM (inactive) | > 100 µM (inactive) | > 100 µM (inactive) | > 100 µM (inactive) | > 100 µM (inactive) | > 100 µM (inactive) | > 100 µM (inactive) | > 10 µM (inactive) | > 100 µM (inactive) | > 100 µM (inactive) | > 100 µM (inactive) | > 100 µM (inactive) | 78.3 µM (inactive) | – | > 100 µM (inactive) | 41.1 µM (inactive) | – | > 100 µM (inactive) | 89.9 µM (inactive) | > 100 µM (inactive)
N#C/C(=C/Sc1ccccc1)C(=O)O | 17.4 µM (inactive) | 40.7 µM (inactive) | 24.7 µM (inactive) | 19.1 µM (inactive) | – | – | – | 14.9 µM (inactive) | 45.1 µM (inactive) | 10.9 µM (inactive) | 27.1 µM (inactive) | 29.6 µM (inactive) | 14.3 µM (inactive) | 59.4 µM (inactive) | 56.2 µM (inactive) | > 100 µM (inactive) | – | 38.7 µM (inactive) | 13.5 µM (inactive) | –
CC(C)OCC(O)COc1cc(=O)oc2ccccc12 (stereo not given) | > 100 µM (inactive) | > 100 µM (inactive) | > 100 µM (inactive) | > 100 µM (inactive) | > 100 µM (inactive) | > 100 µM (inactive) | > 100 µM (inactive) | > 100 µM (inactive) | > 100 µM (inactive) | > 100 µM (inactive) | > 100 µM (inactive) | > 100 µM (inactive) | – | > 100 µM (inactive) | > 100 µM (inactive) | > 100 µM (inactive) | > 100 µM (inactive) | > 100 µM (inactive) | > 100 µM (inactive) | –
Cc1ccc(S(=O)(=O)N/N=C2\C=CC3(CC2)C(=O)N(I)c2ccccc23)cc1 (stereo not given) | > 100 µM (inactive) | > 100 µM (inactive) | > 100 µM (inactive) | 82.2 µM (inactive) | – | > 100 µM (inactive) | 83 µM (inactive) | 42.6 µM (inactive) | > 100 µM (inactive) | – | > 100 µM (inactive) | > 100 µM (inactive) | 15.1 µM (inactive) | > 100 µM (inactive) | > 100 µM (inactive) | 86.9 µM (inactive) | > 100 µM (inactive) | > 100 µM (inactive) | > 100 µM (inactive) | –
N=NCC(=O)OC(COCc1ccccc1)COCc1ccccc1 | – | > 100 µM (inactive) | > 100 µM (inactive) | 31.4 µM (inactive) | 65 µM (inactive) | > 100 µM (inactive) | – | 39.7 µM (inactive) | > 100 µM (inactive) | > 100 µM (inactive) | > 100 µM (inactive) | > 100 µM (inactive) | > 100 µM (inactive) | > 100 µM (inactive) | > 100 µM (inactive) | > 100 µM (inactive) | – | > 100 µM (inactive) | > 100 µM (inactive) | > 100 µM (inactive)
